# From ChEMBL document CHEMBL5096228, “Targeting Vancomycin-Resistant Enterococci (VRE) Infections and Van Operon-Mediated Drug Resistance Using Dimeric Cholic Acid-Peptide Conjugates” (J Med Chem, 2022)
# Positions of bridges follow the written chain, without caps; N, C: chain ends. Non-standard residues stand in square brackets, D forms with d. Residues, ends and D or L forms follow the SMILES beside them. *: point of attachment. X1 = CC[C@H](C)CCCCC(=O)*; Dab = NCC[C@H](N)C(=O)O
# Assays:
# [1] = tested on: Staphylococcus aureus; assay: Antimicrobial activity against Staphylococcus aureus ATCC 25923 assessed as growth inhibition after 14 to 16 hrs by CLSI based broth dilution method; assay type: functional; details: time 14-16 hrs
# [2] = tested on: Enterococcus faecium; assay: Antimicrobial activity against Enterococcus faecium assessed as growth inhibition after 14 to 16 hrs by CLSI based broth dilution method; assay type: functional; details: time 14-16 hrs
# [3] = tested on: Staphylococcus aureus; assay: Antimicrobial activity against methicillin-resistant Staphylococcus aureus ATCC 33591 assessed as growth inhibition after 14 to 16 hrs by CLSI based broth dilution method; assay type: functional; details: time 14-16 hrs
# [4] = tested on: Enterococcus faecium; assay: Antimicrobial activity against Vancomycin-resistant Enterococcus faecium ATCC 51559 assessed as growth inhibition after 14 to 16 hrs by CLSI based broth dilution method; assay type: functional; details: time 14-16 hrs
# [5] = Cytotoxicity against mouse LLC cells assessed as reduction in cell viability; assay type: toxicity, cell-based; details: LLC (3LL) cells
# [6] = Hemolytic activity in human RBC at 50 ug/ml; assay type: toxicity, cell-based, Erythrocyte; details: red blood cells (erythrocytes), at 50 µg/mL, read-out: Activity
SMILES,MIC99 [1],MIC99 [2],MIC99 [3],MIC99 [4],IC50 [5],hemolysis at 50 ug/ml [6]
C[C@H](CCC(=O)NCc1cn(CCCCn2cc(CNC(=O)CC[C@@H](C)[C@H]3CC[C@H]4[C@@H]5[C@H](OC(=O)CN)C[C@@H]6C[C@H](OC(=O)CN)CC[C@]6(C)[C@H]5C[C@H](OC(=O)CN)[C@]34C)nn2)nn1)[C@H]1CC[C@H]2[C@@H]3[C@H](OC(=O)CN)C[C@@H]4C[C@H](OC(=O)CN)CC[C@]4(C)[C@H]3C[C@H](OC(=O)CN)[C@]12C.Cl.Cl.Cl.Cl.Cl.Cl,128 mg/L,64 mg/L,64 mg/L,32 mg/L,211 mg/L,2%
CC(C)C(N)C(=O)NCC(=O)O[C@@H]1CC[C@@]2(C)[C@@H](C1)C[C@@H](OC(=O)CNC(=O)C(N)C(C)C)[C@@H]1[C@@H]2C[C@H](OC(=O)CNC(=O)C(N)C(C)C)[C@]2(C)[C@@H]([C@H](C)CCC(=O)NCc3cn(CCCCn4cc(CNC(=O)CC[C@@H](C)[C@H]5CC[C@H]6[C@@H]7[C@H](OC(=O)CNC(=O)C(N)C(C)C)C[C@@H]8C[C@H](OC(=O)CNC(=O)C(N)C(C)C)CC[C@]8(C)[C@H]7C[C@H](OC(=O)CNC(=O)C(N)C(C)C)[C@]56C)nn4)nn3)CC[C@@H]12.Cl.Cl.Cl.Cl.Cl.Cl (some centres undefined),128 mg/L,8 mg/L,32 mg/L,4 mg/L,52 mg/L,50%
NC[C@@H]1O[C@H](O[C@H]2[C@@H](O)[C@H](O[C@@H]3[C@@H](O)[C@H](N)C[C@H](N)[C@H]3O[C@H]3O[C@H](CN)[C@@H](O)[C@H](O)[C@H]3N)O[C@@H]2CO)[C@H](N)[C@@H](O)[C@@H]1O [FRAMYCETIN],16 mg/L,16 mg/L,> 128 mg/L,> 128 mg/L,> 1000 µM,–
CC(C)C(N)C(=O)NCC(=O)O[C@@H]1CC[C@@]2(C)[C@@H](C1)C[C@@H](OC(=O)CNC(=O)C(N)C(C)C)[C@@H]1[C@@H]2C[C@H](OC(=O)CNC(=O)C(N)C(C)C)[C@]2(C)[C@@H]([C@H](C)CCC(=O)OCc3ccccc3)CC[C@@H]12 (some centres undefined),16 mg/L,8 mg/L,4 mg/L,2 mg/L,40 mg/L,95%
CC[C@H](C)CCCCC(=O)N[C@@H](CCN)C(=O)N[C@H](C(=O)N[C@@H](CCN)C(=O)N[C@H]1CCNC(=O)[C@H]([C@@H](C)O)NC(=O)[C@H](CCN)NC(=O)[C@H](CCN)NC(=O)[C@H](CC(C)C)NC(=O)[C@@H](Cc2ccccc2)NC(=O)[C@H](CCN)NC1=O)[C@@H](C)O (X1-[Dab]T[Dab][Dab][Dab][dF]L[Dab][Dab]T; lactam 4-C),128 mg/L,> 128 mg/L,32 mg/L,> 128 mg/L,–,–
C[C@H](CCC(=O)NCc1cn(CCCn2cc(CNC(=O)CC[C@@H](C)[C@H]3CC[C@H]4[C@@H]5[C@H](OC(=O)CN)C[C@@H]6C[C@H](OC(=O)CN)CC[C@]6(C)[C@H]5C[C@H](OC(=O)CN)[C@]34C)nn2)nn1)[C@H]1CC[C@H]2[C@@H]3[C@H](OC(=O)CN)C[C@@H]4C[C@H](OC(=O)CN)CC[C@]4(C)[C@H]3C[C@H](OC(=O)CN)[C@]12C.Cl.Cl.Cl.Cl.Cl.Cl,128 mg/L,32 mg/L,32 mg/L,16 mg/L,131 mg/L,9%
CC(C)C(N)C(=O)NCC(=O)O[C@@H]1CC[C@@]2(C)[C@@H](C1)C[C@@H](OC(=O)CNC(=O)C(N)C(C)C)[C@@H]1[C@@H]2C[C@H](OC(=O)CNC(=O)C(N)C(C)C)[C@]2(C)[C@@H]([C@H](C)CCC(=O)NCc3cn(CCCCCn4cc(CNC(=O)CC[C@@H](C)[C@H]5CC[C@H]6[C@@H]7[C@H](OC(=O)CNC(=O)C(N)C(C)C)C[C@@H]8C[C@H](OC(=O)CNC(=O)C(N)C(C)C)CC[C@]8(C)[C@H]7C[C@H](OC(=O)CNC(=O)C(N)C(C)C)[C@]56C)nn4)nn3)CC[C@@H]12.Cl.Cl.Cl.Cl.Cl.Cl (some centres undefined),128 mg/L,16 mg/L,32 mg/L,4 mg/L,96 mg/L,36%
